Patent publication US8568745B2, “Water-soluble drug carrier and process for producing the same” (Kyushu University, National University Corporation, priority 2009, dated 2013)

Assay: Dispersibility of FITC-DEX-encapsulated S/W with additives
Assay type: physicochemical
Details: additive 125 mg/mL in aqueous phase of S/O/W emulsion
Experimental: In order to reduce the particle size in S/W, the additives presented in Table 1 were added to the aqueous phase of the S/O/W emulsion during the preparation of S/W, and the dispersibility of each sample was observed.
(2) Cyclohexane (3.0 mL) was added to (1) to obtain an FITC-DEX-encapsulated S/O.
(3) A PC-ER-290-FITC-DEX complex solid was obtained by freeze drying the S/O/W emulsion prepared by agitating the solution of (2) (0.50 mL), and 5.0 mL of an aqueous solution (containing 2.5 mg/mL PC, and each additive at a concentration of 125 mg/mL) in a 12-mL vial container using a homogenizer.
(4) A 0.1 TE buffer (5.0 mL) was added to (3) to obtain an FITC-DEX-encapsulated S/W.

Row | dispersibility / particle size of FITC-DEX-encapsulated S/W with additive | SMILES
1 | relatively small particle sizes | OC[C@H]1O[C@H](O[C@H]2O[C@H](CO)[C@@H](O)[C@H](O)[C@H]2O)[C@H](O)[C@@H](O)[C@@H]1O [trehalose]
2 | relatively small particle sizes | OC[C@@H](O)[C@@H](O)[C@H](O)[C@@H](O)CO [sorbitol]
3 | relatively small particle sizes | OCC(O)CO [Glycerine]
